# Measured values reported in patent US6544551B1, “Solid pharmaceutical compositions containing hexedecylphosphocholine (miltefosine) for oral administration in the treatment of leishmaniasis” (priority 1998, dated 2003).
# Experiments:
# [1] = Hygroscopicity (incorporation of water molecules); format: physicochemical
# [2] = tested on: visceral leishmaniasis (VL); test: Clinical study of oral miltefosine capsules in human visceral leishmaniasis: efficacy; format: in vivo
# Procedure: (§1) Miltefosine (MILT, hexadecylphosphocholine, ASTA Medica), an antineoplastic alkylphospholipid, is active in experimental visceral leishmaniasis (VL). To test oral MILT in human VL, 30 male Indian patients from Bihar (age>14 years; 18 of the 30 were antimony (Sb) failures) with splenic aspirate-positive VL were treated in 6 groups of 5 patients each (Groups A-F) for 28 days with escalating doses by oral administration of capsules according to example 1: (A) 50 mg once qod (qod=[…]), (B) 50 mg BID god (BID=twice per day), and then daily using 50 mg (C) BID (100 mg/d), (D) TID (150 mg/d), (E) QID (200 mg/d), and (F) 5×per day (250 mg/d).
# [3] = tested on: experimental visceral leishmaniasis (VL); conditions: in vivo; cited from earlier work
# [4] = Clinical study of oral miltefosine capsules in human visceral leishmaniasis: tolerability and safety; format: in vivo
# Procedure: as §1
# [5] = Day 14 results in 30 patients, Groups A-F together, oral
# [6] = Group A: 50 mg once qod, 28 days, oral
# [7] = Group B: 50 mg BID qod, 28 days, oral
# [8] = Group D: 50 mg TID (150 mg/d), 28 days, oral
smiles,measurement,setting,value
"CCCCCCCCCCCCCCCCOP(=O)([O-])OCC[N+](C)(C)C [Miltefosine, hexadecylphosphocholine]",increase in weight by incorporation of water molecules,[1],up to 30%
same,patients afebrile by day 7,"[2]; 30 male Indian VL patients, Groups A-F together, oral capsules according to example 1, 28 days, day 7",16 patients
same,"all 3 responses (afebrile, decreased spleen size, negative aspirate) = apparent cures, day 14","[2]; Day 14, Groups A-F together, oral",21 of 30
same,"afebrile, day 14",[2]; [5],25 patients
same,"decreased spleen size, day 14",[2]; [5],25 patients
same,"negative spleenic aspirates (apparent parasitologic cure), day 14",[2]; [5],28 patients
same,apparent cures on day 28 (percent of patients),"[2]; Day 28, 29 patients",100%
same,apparent cures on day 28,"[2]; Day 28, Groups A-F together, including 4 patients with less than 10 days of therapy",29 of 29
same,"cure (no relapse, parasite-free bone marrow aspirate) within 6 months, Group A",[2]; [6],2/5
same,"relapsed within 6 months, Group A",[2]; [6],3/5
same,"cure (no relapse, parasite-free bone marrow aspirate) within 6 months, Group B",[2]; [7],2/5
same,"relapsed within 6 months, Group B",[2]; [7],3/5
same,"cure (no relapse, parasite-free bone marrow aspirate) within 6 months, Group C","[2]; Group C: 50 mg BID (100 mg/d), 28 days, oral",5/5
same,"cure (no relapse, parasite-free bone marrow aspirate) within 6 months, Group D",[2]; [8],4/5
same,"relapsed within 6 months, Group D",[2]; [8],1/5
same,"cure (no relapse, parasite-free bone marrow aspirate) within 6 months, Group E","[2]; Group E: 50 mg QID (200 mg/d), 28 days, oral",5/5
same,apparent cures relapsed within 6 months,"[2]; all groups, within 6 months",7 of 29
same,"apparent cure (no relapse, parasite-free bone marrow aspirate) within 6 months","[2]; all groups, within 6 months, 1 patient still in follow up",21 of 26
same,patients with definite cure who had failed prior therapy with antimony,[2]; of the first 21 patients with definite cure,14 patients
same,activity in experimental visceral leishmaniasis,[3],active
same,patients died,"[4]; Group F (250 mg/d), died on day 21, drug stopped on day 19, severe vomiting and diarrhea, dehydration, renal failure",1 patient
same,hematologic toxicity,"[4]; human, in vivo",no hematologic toxicity
same,mild vomiting or diarrhea lasting 3-7 days,"[4]; human, in vivo",most patients
same,"patients removed because of vomiting, Group F","[4]; male, human, in vivo, 28 days",3
same,maximum tolerated daily dose,"[4]; oral, human VL patients, 28 days",200 mg/day
